# Assay results taken from patent US6630569B1, “Ectoparasiticide agents” (priority 1998, dated 2003).
# Legend:
# [1] = test system: Lucilia cuprina larvae (1st-3rd stage); test: Blowfly larvae test / development-inhibitory action; assay type: in vivo; conditions: 100% = no flies hatched
# Experimental: Blowfly Larvae Test/Development-inhibitory Action
# Test animals: Lucilia cuprina larvae (1st-3rd stage)
# (§1) Solvent: Dimethyl sulphoxide
# 20 mg of active compound are dissolved in one ml of dimethyl sulphoxide. To prepare a suitable formulation, the solution of active compound is diluted with water to the particular desired concentration.
# About 20 Lucilia cuprina larvae are introduced into a test tube which contains about 1 cm^3 of horse meat and 0.5 ml of the preparation of active compound to be tested. After 24 hours and 48 hours, the effectiveness of the preparation of active compound is determined. The test tubes are transferred into beakers whose bottom is covered with sand. After a further two days, the test tubes are removed and the pupae are counted.
# The effect of the preparation of active compound is assessed by the number of flies which have hatched after 1.5 times the development period of an untreated control. 100% means that no flies have hatched; 0% means that all flies have hatched normally.
# [2] = test system: Adult females of Boophilus microplus (parkhurst strain, SP-resistant); test: Test with resistant monoxenous cattle ticks / SP-resistant Parkhurst strain (injection into abdomen); assay type: in vivo; conditions: dosage 20 μg injected; 100% = no fertile eggs
# Experimental: Test with Resistant Monoxenous Cattle Ticks/SP-resistant Parkhurst Strain
# Test animals: Adult females of Boophilus microplus (parkhurst strain, SP-resistant) which have sucked themselves full
# as §1
# 20 mg of active compound are dissolved in one ml of dimethyl sulphoxide, more dilute concentrations are prepared by dilution in the same solvent.
# The test is carried out in five replications. 1 μl of the solutions is injected into the abdomen, and the animals are transferred into dishes and kept in a climatized room. After seven days, the activity is checked by examination for the position of fertile eggs. Eggs whose fertility is not visible from the outside are stored in glass tubes in a controlled-environment cabinet until the larvae have hatched after about 24 days. An activity of 100% means that the tick has not produced any fertile eggs.
# [3] = test system: Adults of Ctenocephalides felis; test: Test with cat fleas / oral uptake; assay type: in vivo; conditions: dosage 100 μg; mortality after 24 h, blood feeding
# Experimental: Test with Cat Fleas/oral Uptake
# Test animals: Adults of Ctenocephalides felis
# Solvent: Dimethyl sulphoxide (DMSO)
# 7.5 μl of this formulation are added to 3.5 ml of citrated cattle blood and stirred.
# 20 unfed adult fleas (Ctenocephalides felis, strain “Georgi”) are placed into a chamber (Ø 2.5 cm) whose top and bottom are closed with gauze. A metal cylinder whose underside is covered with parafilm is placed onto the chamber. […] Whereas the blood is warmed to 37° C., the temperature in the area of the flea chambers is adjusted to 25° C. Controls are mixed with the same volume of DMSO, without addition of a compound. The determinations are carried out in triplicate.
# After 24 h, the mortality in % (=dead fleas) is determined, using imidacloprid as standard.
# [4] = test system: All stages of Boophilus microplus, pyrethroid-resistant strain; test: In vivo test on ticks / mini-dip on cattle; conditions: dosage 1000 μg, 100% = no ticks with fertile eggs
# Experimental: In vivo Test on Ticks/mini-dip on Cattle
# Test object: All stages of Boophilus microplus (larvae, metalarvae, nymphs, metanymphs and adults) pyrethroid-resistant strain.
# Solution: Active compound 30% strength in methyl glycol and emulsifier NP 10 in a ratio of 1:1.
# For the treatment of the cattle, concentrations of 1000, 300, 100, 30, 10 and 1 ppm are used, in a volume of 200 ml. The cattle hide to be treated is wetted with the solution of active compound for 1 min.
# 14×, in intervals of two days, cattle is infected with about 3000 14- to 28-day-old larvae of B. microplus which have not been fed. On day 23 p.i., defined areas on the surface of the cattle skin are wetted with the abovementioned preparation of active compound. From day 24 to 45 p.i., the female adult ticks which develop are counted, and the fertility of the eggs laid by these ticks is checked and used to determine the activity of the preparation of active compound.
# silkworms = conditions: in vivo; cited from earlier work
SMILES,Activity (in %) ([1]; dosage 1000 ppm) [%],Activity (in %) [2] [%],Activity (in %) [3] [%],Activity (in %) [4] [%],insecticidal activity against silkworms (silkworms),Activity (in %) ([1]; dosage 100 ppm) [%]
"CC(C)C[C@H]1C(=O)O[C@H](Cc2ccccc2)C(=O)N(C)[C@@H](CC(C)C)C(=O)O[C@H](C)C(=O)N(C)[C@@H](CC(C)C)C(=O)O[C@H](Cc2ccccc2)C(=O)N(C)[C@@H](CC(C)C)C(=O)O[C@H](C)C(=O)N1C [PF 1022A, cyclo(-N-methyl-L-leucinyl-D-lactyl-N-methyl-L-leucinyl-D-phenyllactyl-N-methyl-L-leucinyl-D-lactyl-N-methyl-L-leucinyl-D-phenyllactyl-)]",0,0,0,0,insecticidal activity,–
CC(C)C[C@H]1C(=O)O[C@H](C(C)C)C(=O)N(C)[C@@H](CC(C)C)C(=O)O[C@H](C(C)C)C(=O)N(C)[C@@H](CC(C)C)C(=O)O[C@H](C(C)C)C(=O)N(C)[C@@H](CC(C)C)C(=O)O[C@H](C(C)C)C(=O)N1C [bassianolide],–,–,–,–,insecticidal activity,–
"CC(C)C[C@@H]1C(=O)O[C@@H](Cc2ccc(N3CCOCC3)cc2)C(=O)N(C)[C@H](CC(C)C)C(=O)O[C@@H](C)C(=S)N(C)[C@H](CC(C)C)C(=O)O[C@@H](Cc2ccc(N3CCOCC3)cc2)C(=O)N(C)[C@H](CC(C)C)C(=O)O[C@@H](C)C(=O)N1C [compound 9, Cyclo-(N-methyl-L-leucinyl-D-thiolactyl-N-methyl-L-leucinyl-D-4-morpholino-phenyllactyl-N-methyl-L-leucinyl-D-lactyl-N-methyl-L-leucinyl-D-4-N-morpholinophenyllactyl-)]",100,–,100,–,–,100
